Experimental data from ChEMBL document CHEMBL1201862, “PubChem BioAssay data set” (2004).
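Each compound was tested at five concentrations against cells in 96-well plates for 48 hours. GI50 marks 50% less growth.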 Activity calls are given as the source filed them. Rule as the data show it: active = GI50 up to about 1.1 µM and inactive = higher.

Key:
Assay in all cases: DTP human tumour cell line panel, 48 h
NCI-H226 = test system: NCI-H226
SNB-19 = test system: SNB-19
SW-620 = test system: SW-620
NCI-H522 = test system: NCI-H522
OVCAR-4 = test system: OVCAR-4
HCC 2998 = test system: HCC 2998
HOP-92 = test system: HOP-92
HL-60 = test system: HL-60
NCI-H23 = test system: NCI-H23
RXF 631 = test system: RXF 631
SF-539 = test system: SF-539
RPMI-8226 = test system: RPMI-8226
KM-20L2 = test system: KM-20L2
LOX IMVI = test system: LOX IMVI
TK-10 = test system: TK-10
Malme-3M = test system: Malme-3M
OVCAR-8 = test system: OVCAR-8
SK-MEL-2 = test system: SK-MEL-2
A549 = test system: A549
UACC-62 = test system: UACC-62
SK-MEL-28 = test system: SK-MEL-28
OVCAR-5 = test system: OVCAR-5
SNB-78 = test system: SNB-78
A498 = test system: A498
HCT-15 = test system: HCT-15
DMS-273 = test system: DMS-273
SK-OV-3 = test system: SK-OV-3
EKVX = test system: EKVX
SN12C = test system: SN12C
HOP-62 = test system: HOP-62
MOLT-4 = test system: MOLT-4
HT-29 = test system: HT-29
UO-31 = test system: UO-31
HCT-116 = test system: HCT-116
KM12 = test system: KM12
OVCAR-3 = test system: OVCAR-3
DLD-1 = test system: DLD-1
M19-MEL = test system: M19-MEL
SF-295 = test system: SF-295
U-251 = test system: U-251
CAKI-1 = test system: CAKI-1
K562 = test system: K562
HOP-18 = test system: HOP-18
786-0 = test system: 786-0
SNB-75 = test system: SNB-75
DMS-114 = test system: DMS-114
CCRF-CEM = test system: CCRF-CEM
IGROV-1 = test system: IGROV-1
SF-268 = test system: SF-268
NCI-H460 = test system: NCI-H460
RXF 393 = test system: RXF 393
ACHN = test system: ACHN
XF498 = test system: XF498
M14 = test system: M14
COLO 205 = test system: COLO 205
UACC-257 = test system: UACC-257

## O=c1ncc(F)cn1C1OC(CO)C(O)C1O (stereo unspecified)
NCI-H226
  GI50: > 19.1 µM (inactive)
SNB-19
  GI50: > 18.3 µM (inactive)
SW-620
  GI50: > 31.4 µM (inactive)
NCI-H522
  GI50: > 32.7 µM (inactive)
OVCAR-4
  GI50: > 80.5 µM (inactive)
HCC 2998
  GI50: 16.9 µM (inactive)
HOP-92
  GI50: 23.8 µM (inactive)
HL-60
  GI50: 19.3 µM (inactive)
NCI-H23
  GI50: > 100 µM (inactive)
RXF 631
  GI50: 41.6 µM (inactive)
SF-539
  GI50: > 34.9 µM (inactive)
RPMI-8226
  GI50: 15.1 µM (inactive)
KM-20L2
  GI50: > 32.9 µM (inactive)
LOX IMVI
  GI50: 16.7 µM (inactive)
TK-10
  GI50: > 69.2 µM (inactive)
Malme-3M
  GI50: > 29.8 µM (inactive)
OVCAR-8
  GI50: > 27.7 µM (inactive)
SK-MEL-2
  GI50: > 28.3 µM (inactive)
A549
  GI50: > 36.6 µM (inactive)
UACC-62
  GI50: > 37.6 µM (inactive)
SK-MEL-28
  GI50: > 45.6 µM (inactive)
OVCAR-5
  GI50: > 52 µM (inactive)
SNB-78
  GI50: > 29.7 µM (inactive)
A498
  GI50: > 44.2 µM (inactive)
HCT-15
  GI50: > 100 µM
DMS-273
  GI50: 16.7 µM (inactive)
SK-OV-3
  GI50: > 42.6 µM (inactive)
EKVX
  GI50: > 100 µM (inactive)
SN12C
  GI50: > 17.4 µM (inactive)
HOP-62
  GI50: > 30.7 µM (inactive)
MOLT-4
  GI50: > 20.7 µM (inactive)
HT-29
  GI50: > 30.7 µM (inactive)
UO-31
  GI50: > 100 µM (inactive)
HCT-116
  GI50: 24.4 µM (inactive)
KM12
  GI50: > 30.5 µM (inactive)
OVCAR-3
  GI50: > 26.7 µM (inactive)
DLD-1
  GI50: > 35.8 µM (inactive)
M19-MEL
  GI50: > 24.6 µM (inactive)
SF-295
  GI50: > 29.7 µM (inactive)
U-251
  GI50: > 14.9 µM (inactive)
CAKI-1
  GI50: 15.5 µM (inactive)
K562
  GI50: 7.38 µM (inactive)
HOP-18
  GI50: > 31.5 µM (inactive)
786-0
  GI50: > 36.4 µM (inactive)
SNB-75
  GI50: 6.24 µM (inactive)
DMS-114
  GI50: > 21.2 µM (inactive)
CCRF-CEM
  GI50: 14.7 µM (inactive)
IGROV-1
  GI50: > 30.8 µM (inactive)
SF-268
  GI50: > 23.9 µM (inactive)
NCI-H460
  GI50: 23.6 µM (inactive)
RXF 393
  GI50: > 100 µM (inactive)
ACHN
  GI50: > 44 µM (inactive)
XF498
  GI50: > 100 µM (inactive)
M14
  GI50: > 52 µM (inactive)
COLO 205
  GI50: > 24.6 µM (inactive)
UACC-257
  GI50: 14.1 µM (inactive)
